According to patent US20240217973A1, “IMIDAZOPYRIDINE COMPOUNDS AND USE THEREOF” (MEDSHINE DISCOVERY INC., priority 2021, published 2024):

Assays:
plasma proteins [1] = experiment: Plasma protein binding experiment (PPB), H; format: in vitro ADME, human; settings: 2 μM, 4 hours dialysis
Method: (§1) Experimental operation: 995 μL of blank plasma of each genus was taken, 5 μL of working solution of test compound (400 μM) or working solution of warfarin (400 μM) was added, so that the final concentrations of the test compound and warfarin in the plasma sample was 2 μM. The sample was mixed thoroughly. The final concentration of the organic phase DMSO was 0.5%; 50 μL of plasma samples of the test compound and warfarin were pipetted into the sample receiving plate (three parallels), and the corresponding volume of the corresponding blank plasma or buffer was immediately added so that the final volume of each sample well was 100 μL, with a volume ratio of 1:1 for plasma: dialysis buffer, and then 500 μL of stop solution was added to these samples, and these samples would be used as a T0 sample for the recovery and stability determination. […] All samples were analyzed by LC/MS/MS after protein precipitation, and the protein binding rate and recovery rate were calculated by the formula: % Unbound=100*F/T, % Bound=100−% Unbound, % Recovery 100*(F+T) T0 (where F was the peak area ratio of the compound in the dialysate after 4 hours of dialysis; T was the peak area ratio of the compound in the plasma after 4 hours of dialysis, and T0 was the peak area ratio of the compound in the plasma sample at zero time).

plasma proteins [2] = experiment: Plasma protein binding experiment (PPB), D; format: in vitro ADME, dog; settings: 2 μM, 4 hours dialysis
Method: as §1

plasma proteins [3] = experiment: Plasma protein binding experiment (PPB), R; format: in vitro ADME, rat; settings: 2 μM, 4 hours dialysis
Method: as §1

plasma proteins [4] = experiment: Plasma protein binding experiment (PPB), M; format: in vitro ADME, mouse; settings: 2 μM, 4 hours dialysis
Method: as §1

[5] = Hepatocyte metabolic stability experiment (HMS), D; format: in vitro ADME; settings: dog, D hepatocytes, read-out: HMS CLint(liver)
Method: Experimental operations: 198 μL of hepatocyte suspension (0.51×10^6 cells/mL) was added to the preheated incubation plate, and 198 μL of culture medium without hepatocytes was added to T0-MC and T120-MC incubation plates for the culture medium control group, and all incubation plates were pre-incubated for 10 minutes in a 37° C. incubator. Then 2 μL of the working solution of the test and control compounds were added and mixed well, and the incubation plate was immediately put into the plate shaker in the incubator, the rotation speed was adjusted to about 650 rpm, and the timer and the reaction were started. 2 duplicate samples for each compound were prepared at each time point. Incubation conditions: 37° C., saturated humidity, and containing 5% CO2. In the test system, the final concentration of the test compound was 1 μM, the final concentration of the control compound was 3 μM, the final concentration of hepatocytes was 0.5×10^6 cells/mL, and the final concentration of the total organic solvent was 0.96%, of which the final concentration of DMSO was 0.1%. […] All samples were mixed and analyzed by LC-MS/MS method. […]

[6] = Pharmacokinetic evaluation of compounds in mice; format: in vivo, CD-1 mice; settings: mouse, plasma, CD-1 male mice
Method: Experimental purpose: To test the in vivo pharmacokinetic data of compounds in CD-1 mice.
(§2) The compound was mixed with the solvent 5% DMSO/5% Solutol/90% H2O, vortexed and sonicated to prepare a 0.5 mg/mL clear solution. CD-1 male mice aged 7 to 10 weeks were selected, and administered the candidate compound solution intravenously. Whole blood was collected for a certain period of time, and plasma was prepared. The drug concentration was analyzed by LC-MS/MS method, and pharmacokinetic parameters were calculated by Phoenix WinNonlin software (Pharsight Company, USA).
as §2, with “orally.” for “intravenously.”

[7] = tested on: experimental autoimmune encephalomyelitis (EAE) model; experiment: In vivo efficacy of EAE in C57BL/6 mice; settings: C57BL/6 female mice, 5 mg/kg
Method: Experimental methods: Experimental autoimmune encephalomyelitis (EAE) model was established in 10-week-old C57BL/6 female mice, and the animals were randomly divided into two groups according to their weight, of which, group G1 was a pure modeling group with 5 animals, and group G2 was a subject 002 group with 7 animals. On day 0, 100 μL of myelin oligodendrocyte glycoprotein (MOG) emulsion was injected subcutaneously into the hind flank of each animal in the G1-G2 group at two points, totaling 200 μL. After 2 hours and 48 hours, respectively, 200 μL of pertussis toxin (PTX) was injected subcutaneously into the animals of groups G1-G2. The in vivo experiment was finished on day 22, and no treatment was given to group G1 from day 0; G2 group was administered 5 mg/kg of subject 002 once a day for […]. The animals in each group were weighed and scored (including tail weakness, claudication, hind limb paralysis, hind limb paralysis and other symptoms) every 2 days. [table] [table]

[8] = IV, 1.0 mg/kg (002), 1.2 mg/kg (003B)
[9] = PO, 2.9 mg/kg (002), 2.85 mg/kg (003B)

- Unbound PPB (plasma proteins [1]): 8.2%
- Unbound PPB (plasma proteins [2]): 4.3%
- Unbound PPB (plasma proteins [3]): 1.3%
- Unbound PPB (plasma proteins [4]): 4.5%
- CLint scaled at 1 μM [5]: 187 mL/min/kg
- AUC(0-inf) [6, 8]: 0.697 µM·h
- C0 [6, 8]: 4190 nM
- Vd [6, 8]: 0.76 L/kg
- clearance [6, 8]: 49 mL/min/kg
- half-life [6, 8]: 16.8 min
- AUC(0-inf) [6, 9]: 0.83 µM·h
- Cmax [6, 9]: 1190 nM
- Tmax [6, 9]: 4.98 min
- bioavailability [6, 9]: 39.7%
- half-life [6, 9]: 21 min
Structure (SMILES): Nc1nccc2c1n(-c1ccc(Oc3ccccc3)cc1)c(=O)n2[C@@H]1CCCN(C(=O)/C=C/CF)C1 [Compound 002]
- efficacy in EAE model / severity of the disease (in words) ([7]; QD, compared with the modeling group): effective in reducing the severity of the disease
- Scores of animals on day 20 after administration ([7]; EAE model, QD × 29, moulding group 1.8): 0.4
